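Following 48 hours of exposure in 96-well plates, responses at five concentrations were used to interpolate endpoints linearly. GI50 is the concentration that inhibits growth by half. The concentration for full growth arrest is given as TGI.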
Experiments:
Test in all cases: NCI anticancer screen, dose series, 48 h
786-0 renal = system: 786-0 renal
A498 renal = system: A498 renal
A549 NSCLC = system: A549 NSCLC
ACHN renal = system: ACHN renal
BT-549 breast = system: BT-549 breast
CAKI-1 renal = system: CAKI-1 renal
CCRF-CEM leukemia = system: CCRF-CEM leukemia
COLO 205 colon = system: COLO 205 colon
DU-145 prostate = system: DU-145 prostate
EKVX NSCLC = system: EKVX NSCLC
HCC-2998 colon = system: HCC-2998 colon
HCT-116 colon = system: HCT-116 colon
HCT-15 colon = system: HCT-15 colon
HL-60(TB) leukemia = system: HL-60(TB) leukemia
HOP-62 NSCLC = system: HOP-62 NSCLC
HOP-92 NSCLC = system: HOP-92 NSCLC
HS 578T breast = system: HS 578T breast
HT29 colon = system: HT29 colon
IGROV1 ovarian = system: IGROV1 ovarian
K-562 leukemia = system: K-562 leukemia
KM12 colon = system: KM12 colon
LOX IMVI melanoma = system: LOX IMVI melanoma
M14 melanoma = system: M14 melanoma
MALME-3M melanoma = system: MALME-3M melanoma
MCF7 breast = system: MCF7 breast
MDA-MB-231 breast = system: MDA-MB-231 breast
MDA-MB-435 = system: MDA-MB-435
MOLT-4 leukemia = system: MOLT-4 leukemia
NCI-H226 lung = system: NCI-H226 lung
NCI-H23 lung = system: NCI-H23 lung
NCI-H460 lung = system: NCI-H460 lung
NCI-H522 lung = system: NCI-H522 lung
NCI/ADR-RES ovarian = system: NCI/ADR-RES ovarian
OVCAR-3 ovarian = system: OVCAR-3 ovarian
OVCAR-4 ovarian = system: OVCAR-4 ovarian
OVCAR-5 ovarian = system: OVCAR-5 ovarian
OVCAR-8 ovarian = system: OVCAR-8 ovarian
PC-3 prostate = system: PC-3 prostate
RPMI-8226 leukemia = system: RPMI-8226 leukemia
RXF 393 renal = system: RXF 393 renal
SF-268 CNS = system: SF-268 CNS
SF-295 CNS = system: SF-295 CNS
SF-539 CNS = system: SF-539 CNS
SK-MEL-2 melanoma = system: SK-MEL-2 melanoma
SK-MEL-28 melanoma = system: SK-MEL-28 melanoma
SK-MEL-5 melanoma = system: SK-MEL-5 melanoma
SK-OV-3 ovarian = system: SK-OV-3 ovarian
SN12C renal = system: SN12C renal
SNB-19 CNS = system: SNB-19 CNS
SNB-75 CNS = system: SNB-75 CNS
SR leukemia = system: SR leukemia
SW-620 colon = system: SW-620 colon
T-47D breast = system: T-47D breast
TK-10 renal = system: TK-10 renal
U251 CNS = system: U251 CNS
UACC-257 melanoma = system: UACC-257 melanoma
UACC-62 melanoma = system: UACC-62 melanoma
UO-31 renal = system: UO-31 renal

CC(=O)Nc1ccc2c(c1)[nH]c(=O)c1cc(NC(C)=O)ccc12
GI50 (786-0 renal): > 100 µM
TGI (786-0 renal): > 100 µM
GI50 (A498 renal): > 100 µM
TGI (A498 renal): > 100 µM
GI50 (A549 NSCLC): > 100 µM
TGI (A549 NSCLC): > 100 µM
GI50 (ACHN renal): > 100 µM
TGI (ACHN renal): > 100 µM
GI50 (BT-549 breast): > 100 µM
TGI (BT-549 breast): > 100 µM
GI50 (CAKI-1 renal): > 100 µM
TGI (CAKI-1 renal): > 100 µM
GI50 (CCRF-CEM leukemia): 53.5 µM
TGI (CCRF-CEM leukemia): > 100 µM
GI50 (COLO 205 colon): > 100 µM
TGI (COLO 205 colon): > 100 µM
GI50 (DU-145 prostate): > 100 µM
TGI (DU-145 prostate): > 100 µM
GI50 (EKVX NSCLC): > 100 µM
TGI (EKVX NSCLC): > 100 µM
GI50 (HCC-2998 colon): > 100 µM
TGI (HCC-2998 colon): > 100 µM
GI50 (HCT-116 colon): > 100 µM
TGI (HCT-116 colon): > 100 µM
GI50 (HCT-15 colon): > 100 µM
TGI (HCT-15 colon): > 100 µM
GI50 (HL-60(TB) leukemia): 26.6 µM
TGI (HL-60(TB) leukemia): > 100 µM
GI50 (HOP-62 NSCLC): > 100 µM
TGI (HOP-62 NSCLC): > 100 µM
GI50 (HOP-92 NSCLC): 31.9 µM
TGI (HOP-92 NSCLC): > 100 µM
GI50 (HS 578T breast): > 100 µM
TGI (HS 578T breast): > 100 µM
GI50 (HT29 colon): > 100 µM
TGI (HT29 colon): > 100 µM
GI50 (IGROV1 ovarian): > 100 µM
TGI (IGROV1 ovarian): > 100 µM
GI50 (K-562 leukemia): 59.5 µM
TGI (K-562 leukemia): > 100 µM
GI50 (KM12 colon): > 100 µM
TGI (KM12 colon): > 100 µM
GI50 (LOX IMVI melanoma): > 100 µM
TGI (LOX IMVI melanoma): > 100 µM
GI50 (M14 melanoma): > 100 µM
TGI (M14 melanoma): > 100 µM
GI50 (MALME-3M melanoma): > 100 µM
TGI (MALME-3M melanoma): > 100 µM
GI50 (MCF7 breast): > 100 µM
TGI (MCF7 breast): > 100 µM
GI50 (MDA-MB-231 breast): 90.2 µM
TGI (MDA-MB-231 breast): > 100 µM
GI50 (MDA-MB-435): > 100 µM
TGI (MDA-MB-435): > 100 µM
GI50 (MOLT-4 leukemia): 20 µM
TGI (MOLT-4 leukemia): 50 µM
GI50 (NCI-H226 lung): > 100 µM
TGI (NCI-H226 lung): > 100 µM
GI50 (NCI-H23 lung): > 100 µM
TGI (NCI-H23 lung): > 100 µM
GI50 (NCI-H460 lung): > 100 µM
TGI (NCI-H460 lung): > 100 µM
GI50 (NCI-H522 lung): > 100 µM
TGI (NCI-H522 lung): > 100 µM
GI50 (NCI/ADR-RES ovarian): > 100 µM
TGI (NCI/ADR-RES ovarian): > 100 µM
GI50 (OVCAR-3 ovarian): > 100 µM
TGI (OVCAR-3 ovarian): > 100 µM
GI50 (OVCAR-4 ovarian): > 100 µM
TGI (OVCAR-4 ovarian): > 100 µM
GI50 (OVCAR-5 ovarian): > 100 µM
TGI (OVCAR-5 ovarian): > 100 µM
GI50 (OVCAR-8 ovarian): > 100 µM
TGI (OVCAR-8 ovarian): > 100 µM
GI50 (PC-3 prostate): > 100 µM
TGI (PC-3 prostate): > 100 µM
GI50 (RPMI-8226 leukemia): > 100 µM
TGI (RPMI-8226 leukemia): > 100 µM
GI50 (RXF 393 renal): > 100 µM
TGI (RXF 393 renal): > 100 µM
GI50 (SF-268 CNS): > 100 µM
TGI (SF-268 CNS): > 100 µM
GI50 (SF-295 CNS): > 100 µM
TGI (SF-295 CNS): > 100 µM
GI50 (SF-539 CNS): > 100 µM
TGI (SF-539 CNS): > 100 µM
GI50 (SK-MEL-2 melanoma): > 100 µM
TGI (SK-MEL-2 melanoma): > 100 µM
GI50 (SK-MEL-28 melanoma): > 100 µM
TGI (SK-MEL-28 melanoma): > 100 µM
GI50 (SK-MEL-5 melanoma): > 100 µM
TGI (SK-MEL-5 melanoma): > 100 µM
GI50 (SK-OV-3 ovarian): > 100 µM
TGI (SK-OV-3 ovarian): > 100 µM
GI50 (SN12C renal): > 100 µM
TGI (SN12C renal): > 100 µM
GI50 (SNB-19 CNS): > 100 µM
TGI (SNB-19 CNS): > 100 µM
GI50 (SNB-75 CNS): 41.2 µM
TGI (SNB-75 CNS): > 100 µM
GI50 (SR leukemia): 15.5 µM
TGI (SR leukemia): 53.4 µM
GI50 (SW-620 colon): > 100 µM
TGI (SW-620 colon): > 100 µM
GI50 (T-47D breast): > 100 µM
TGI (T-47D breast): > 100 µM
GI50 (TK-10 renal): > 100 µM
TGI (TK-10 renal): > 100 µM
GI50 (U251 CNS): 52 µM
TGI (U251 CNS): > 100 µM
GI50 (UACC-257 melanoma): > 100 µM
TGI (UACC-257 melanoma): > 100 µM
GI50 (UACC-62 melanoma): > 100 µM
TGI (UACC-62 melanoma): > 100 µM
GI50 (UO-31 renal): > 100 µM
TGI (UO-31 renal): > 100 µM
